Results taken from patent US20120264231A1, “ASSAY FOR ORAI CALCIUM CHANNEL REGULATORS” (IMMUNE DISEASE INSTITUTE, INC., priority 2009, published 2012).

What was measured:
STIM1−/− T cells = assay: Single-cell [Ca2+]i measurement in STIM1−/− T cells expressing STIM1 fragments; assay type: cell-based, murine; conditions: for constitutive Ca^2+ influx: retroviral expression, Fura-2
Text: To determine the competence of STIM 1 fragments to activate ORAI1 in mammalian cells, Myc-tagged STIM 1^CT and its truncated variants were introduced by retroviral expression into STIM1−/− T cells, and their ability to elevate resting Ca^2+ permeability was examined in cells loaded with Fura-2. As in human Jurkat T cells (Huang, G. N., et al., (2006); supra), expression of the soluble cytoplasmic portion of STIM 1 activated Ca^2+ influx into STIM1−/− murine T cells (FIG. 11). Elevated Ca^2+ permeability was evident in a marked increase in cytoplasmic [Ca^2+] on changing to medium containing 2 mM Ca^2+ after brief exposure to nominally Ca^2+-free medium. […] Retroviral vector alone conferred no constitutive influx above the level in control cells, as previously shown (Oh-hora, M., et al., (2008), supra).
Retroviral expression plasmids encoding mouse STIM 1 and its cytoplasmic fragments (residues 233-685, 233-600, 233-498, or 233-463) were constructed by inserting the corresponding coding sequences between the XhoI and EcoRI sites of the vector pMSCV-CITE-eGFP-PGK-Puro (Clontech), which allows for coexpression of the inserted gene, GFP, and a puromycin resistance gene. GFP expression was used to estimate transducing efficiency.
Primary CD4^+ cells were purified from spleen and lymph nodes of Stim1^f1/f1 CD4-Cre^+ mice using Dynal magnetic beads (Invitrogen) following the manufacturer's instructions. Purified T cells were stimulated with anti-CD3 and anti-CD28, transduced with retroviruses obtained from transfected Phoenix packaging cells, and further expanded in IL-2-containing medium as described (Oh-hora, M., et al., Nat Immunol 9, 432-443 (2008); Ansel, K. M., et al., Nat Immunol 5, 1251-1259 (2004)). The transduction efficiency (>80%) was estimated by evaluating GFP expression using flow cytometry.
Retrovirus-transduced CD4^+ cells isolated from Stim1^f1/f1 CD4-Cre^+ mice were incubated overnight in IL-2 free RPMI medium and loaded with 2 μM Fura-2-acetoxylmethyl ester (Invitrogen) for 45 min at ambient temperature in the dark. T cells were further attached to coverslips precoated with 0.01% poly-L-lysine, mounted to a RC-20 closed-bath flow chamber (Warner Instrument), and bathed in Ringer's solution (155 mM NaCl, 4.5 mM KCl, 2 mM CaCl2, 1 mM MgCl2, 10 mM D-glucose and 5 mM HEPES, pH 7.4). For nominally Ca^2+-free Ringer's solution CaCl2 was replaced with MgCl2. After 5 minutes of equilibration in Ringer's solution, [Ca^2+]i measurement commenced with ˜3 min perfusion of T cells with Ca^2+-free Ringer's solution at ambient temperature, followed by perfusion of Ringer's solution containing 2 mM CaCl2. The cycle was repeated once with final addition of Ringer's solution supplemented with 2 μM LaCl3 to block Ca^2+ flux. Images were acquired using a Zeiss Axiovert S200 epifluorescence microscope and OpenLab imaging analysis software (Improvision). The fluorescence data (F340 nm/F380 nm) were collected every 4 s and analyzed as described (Oh-hora, M., et al., (2008), supra; Feske, S., et al., Nature 441, 179-185 (2006)). In each experiment, for each experimental condition, 50-100 GFP-positive CD4+ T cells were analyzed.

ORAI1 = ORAI1 (Homo sapiens, UniProt Q96D31); assay: Confocal localization of mCherry-STIM1 proteins in HEK293 cells; assay type: cell-based; design: expressed in transfected cells; host or cells: HEK293; conditions: mCherry-STIM1 proteins coexpressed with ORAI1 in HEK293 cells
Sequence of ORAI1 (Q96D31 whole entry): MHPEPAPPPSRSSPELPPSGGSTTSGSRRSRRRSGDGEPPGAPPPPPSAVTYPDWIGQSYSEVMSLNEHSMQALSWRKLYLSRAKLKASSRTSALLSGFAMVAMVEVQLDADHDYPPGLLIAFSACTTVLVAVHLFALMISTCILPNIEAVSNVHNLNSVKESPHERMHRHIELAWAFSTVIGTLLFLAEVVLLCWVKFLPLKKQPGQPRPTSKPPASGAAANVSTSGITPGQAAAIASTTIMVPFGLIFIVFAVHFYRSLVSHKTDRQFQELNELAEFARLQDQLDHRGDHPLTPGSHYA
Text: The localization of mCherry-STIM1 proteins in transiently-transfected HEK293 cells was investigated. mCherry-STIM1 (233-683), or (233-498) or (233-463) expressed alone, and also mCherry-STIM (233-683), or (233-498) or (233-463) expressed with ORAI-EYFP in the plasmid ratios 1:0, 0.5:1, 1:1, and 2:1 were examined. […] This is consistent with the functional assay in T cells and with recent reports in the literature (Muik, M., et al., J Biol Chem 283, 8014-8022 (2008); Penna, A., et al., Nature 456, 116-120 (2008); Ji, W., et al., Proc Natl Acad Sci USA 105, 13668-13673 (2008); Yuan, J. P., et al., Nat Cell Biol 11, 337-34 3 (2009); Muik, M., et al., J Biol Chem 284, 8421-8426 (2009); Park, C. Y., et al., Cell 136, 876-890 (2009)). […] The contrasting failure to detect binding of STIM 1 (233-463) in vitro might conceivably reflect the state of the bacterially-expressed protein as a mixture of trimers, tetramers, and undefined large aggregates. A more intriguing possibility, however, is that a weak interaction of STIM 1 (233-463) with ORAI is stabilized and rendered productive by additional proteins in mammalian cells.
An ORAI1-YFP expression plasmid was constructed by cloning the human ORAI1 cDNA (accession number NM_032790) into the vector pEYFP-N1 between the EcoRI and AgeI sites, in frame with the YFP coding sequence. mCherry-tagged STIM 1^CT fragments were made by subcloning mCherry between the BamHI and EcoRI sites of the vector pcDNA3.1(+) (Invitrogen), and subsequently inserting cDNA encoding STIM1^CT fragments between the EcoRI and XhoI sites.
HEK293 cells were transiently transfected with ORAI-YFP or mCherry-STIM plasmids using Lipofectamine 2000 (Invitrogen) according to the manufacturer's instructions. At 48 h post-transfection, confocal imaging was performed on a Zeiss LSM 510 laser scanning microscope with a 100× oil-immersion objective lens. YFP was excited at 488 nm with an argon laser and mCherry at 543 nm with a HeNe laser. All the experiments were carried out with cells bathed in Hanks' Balanced Salt Solution at 37° C.

Row | Substance | steepest rise of cytoplasmic [Ca^2+] (STIM1−/− T cells; on changing to medium containing 2 mM Ca^2+) [nM/s] | localization at plasma membrane (ORAI1) | maximum levels of cytoplasmic Ca^2+ (STIM1−/− T cells; compared with STIM1^CT) | rate of rise of cytoplasmic Ca^2+ (STIM1−/− T cells; compared with STIM1^CT) | constitutive Ca^2+ influx (STIM1−/− T cells)
1 | STIM1^CT: cytoplasmic region of STIM1, mouse residues 233-685, His-tagged recombinant protein expressed in E coli | ~15 | decorated the plasma membrane | – | – | –
2 | STIM1 (233-498): truncated mouse STIM1 cytoplasmic fragment, residues 233-498, His-tagged recombinant protein | – | decorated the plasma membrane | somewhat less than with STIM1^CT | nearly comparable to the rate with STIM 1^CT | activated a prominent constitutive Ca^2+ influx
3 | STIM1 (233-463): truncated mouse STIM1 cytoplasmic fragment, residues 233-463, His-tagged recombinant protein | – | decorated the plasma membrane | – | – | smaller but very clear constitutive Ca^2+ influx
